This is an account of results in US20040253189A1, “Breath Freshening and Oral Cleansing Product Using Geraniol” (priority 2002, published 2004).

Common to all, as to assay type: cell-based
In assay [1] the test system is Fusobacterium nucleatum. Briefly: MBC (minimum bactericidal concentration) determination, plating on blood agar. The conditions noted are these: F. nucleatum, lowest concentration that killed at least 99.9% of initial inoculum. On the procedure:
(§1) In vitro tests were conducted with a gram positive supragingival plaque bacterium, Streptococcus mutans. In addition, two subgingival plaque bacteria associated with oral malodor were tested, Porphyromonas gingivalis and Fusobacterium nucleatum. The MIC (Minimum Inhibitory Concentrations) study protocol is as follows. Chlorhexidine was used as a positive control and sterile water was used as a negative control. Geraniol was suspended in 10% methanol with 3.8% Tween 80. […] 96 well microtiter plates were used for this study. Each well contained 5×10^5 colony forming units/ml of bacteria, serially diluted agents and bacterial growth medium. All bacterial cultures were incubated at 37° C. and stationary. Bacterial growth was estimated spectrophotometrically at 660 nm, after 48 hours. The MIC for each test bacteria was defined as the minimum concentration of test compound limiting turbidity to […]. The MBC (Minimum bactericidal concentrations) were determined using the 96 well microtiter plate serial dilutions as described above for MIC studies. Serial dilution of cultures in wells showing no visible growth were performed and 10 microliters of culture were plated in triplicate on blood agar plates. Viable colonies were scored after incubation of the plates for 48 hours at 37° C. For each test bacterium, the number of CFU/ml were determined in the initial inoculum. The MBC was defined as the lowest concentration of a test compound that killed at least 99.9% of the cells present in the initial inoculum.

Assay [2] relates to Porphyromonas gingivalis. The description is as above. The conditions noted are these: P. gingivalis, lowest concentration that killed at least 99.9% of initial inoculum. On the procedure: as §1
Assay [3] deals with Fusobacterium nucleatum. Briefly: MIC (minimum inhibitory concentration) study, 96 well microtiter plates. The following applies: F. nucleatum, 48 hours at 37° C., turbidity at 660 nm. On the procedure: (§2) In vitro tests were conducted with a gram positive supragingival plaque bacterium, Streptococcus mutans. In addition, two subgingival plaque bacteria associated with oral malodor were tested, Porphyromonas gingivalis and Fusobacterium nucleatum. The MIC (Minimum Inhibitory Concentrations) study protocol is as follows. Chlorhexidine was used as a positive control and sterile water was used as a negative control. Geraniol was suspended in 10% methanol with 3.8% Tween 80. […] 96 well microtiter plates were used for this study. Each well contained 5×10^5 colony forming units/ml of bacteria, serially diluted agents and bacterial growth medium. All bacterial cultures were incubated at 37° C. and stationary. Bacterial growth was estimated spectrophotometrically at 660 nm, after 48 hours. The MIC for each test bacteria was defined as the minimum concentration of test compound limiting turbidity to […].

In assay [4] the test system is Porphyromonas gingivalis. The assay is described as above. The conditions noted are these: P. gingivalis, 48 hours at 37° C., turbidity at 660 nm. Here is the method:
as §2

Assay [5] relates to Streptococcus mutans. The experiment in a line: MBC (minimum bactericidal concentration) determination, plating on blood agar. The conditions noted are these: S. mutans, lowest concentration that killed at least 99.9% of initial inoculum. Here is the method:
as §1

Assay [6] has as its system Streptococcus mutans. Briefly: MIC (minimum inhibitory concentration) study, 96 well microtiter plates. The following applies: S. mutans, 48 hours at 37° C., turbidity at 660 nm. On the procedure: as §2

Structures are written as SMILES. In brackets after ≈: the same amount, converted by molar mass.

Turning to `[H]/N=C(\N/C(=N/[H])NCCCCCCNC(=N)NC(=N)Nc1ccc(Cl)cc1)Nc1ccc(Cl)cc1` [Cholorhexidine, Chlorhexidine, reference compound], the MBC in assay [1] and in assay [2] was 1.25 µg/mL (≈ 2.47 µM) in each case. The MIC in assay [3] and in assay [4] was 1.25 µg/mL (≈ 2.47 µM) in each case.

Take `CC(C)=CCC/C(C)=C/CO` [geraniol]: the results for the MBC in assay [1], in assay [2] and in assay [5] were 125 µg/mL (≈ 810 µM), 125 µg/mL (≈ 810 µM) and 250 µg/mL (≈ 1620 µM), respectively. Moreover, the results for the MIC in assay [3], in assay [4] and in assay [6] were 125 µg/mL (≈ 810 µM), 125 µg/mL (≈ 810 µM) and 500 µg/mL (≈ 3240 µM), respectively.
